The experiment has as its target T1, recombinant human MAS1 (Homo sapiens, UniProt P04201).
T1 construct: expressed in transfected cells; host or cells: CHO cells stably transfected with pTEJ-8 vector
T1 sequence (P04201 1-325): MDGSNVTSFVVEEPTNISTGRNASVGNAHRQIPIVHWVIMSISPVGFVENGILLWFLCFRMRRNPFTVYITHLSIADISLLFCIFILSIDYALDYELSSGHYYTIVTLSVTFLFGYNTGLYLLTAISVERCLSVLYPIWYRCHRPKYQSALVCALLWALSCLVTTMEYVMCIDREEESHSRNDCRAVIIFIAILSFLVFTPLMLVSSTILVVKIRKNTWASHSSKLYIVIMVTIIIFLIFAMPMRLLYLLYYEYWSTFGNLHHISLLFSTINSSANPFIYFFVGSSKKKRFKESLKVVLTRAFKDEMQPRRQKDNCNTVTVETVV
The experiment can be described thus: MAS1 receptor activation, cell-based fluorescence assay of NO release in CHO cells. Conditions: absence of antagonist, MAS1 stably transfected CHO cells, 2 h incubation, two experiments. As for the experimental part: Next, we tested the ability of cyclotide MCo-AT1-7 to activate the MAS1 receptor using CHO cells stably transfected with pTEJ-8 vector expressing recombinant human MAS1 in a cell-based fluorescence assay to detect the amount of NO release (Figure 5). […] The activity of the cyclotide MCo-AT1-7 was estimated to be ≈90% of that of peptide AT1-7 at 10 nM in this assay.
CHO cells stably transfected with pTEJ-8 vector expressing recombinant human MAS1 clone are grown to confluency. After washing, cells were incubated for a short time in 700 µL of supplemented Tyrode’s salts containing 10 µM 2-phenyl-4,4,5,5-tetramethylimidazoline-1-oxyl-3-oxide (PTIO), 100 µM 2,6-diaminonaftalene (DAN), and 1 mM L-arginine. When using antagonist for competition assays, cells are exposed to MAS1 antagonist A779 (D-Ala^7-AT 1-7) at 0.1 µM for 15 min before addition of the cyclotides to be tested. Different concentrations of the cyclotides to be analyzed are added to the cell medium and the plates are agitated for 1 min before being placed into the incubator for 2 h. After 2 h, the cellular supernatants are transferred to opaque 96 well plates, and the amount of released NO is measured by fluorescence (λex = 380 nm, λem = 425 nm).

Molecules are shown by their SMILES.

As for `CC[C@H](C)[C@H](NC(=O)[C@H](Cc1ccc(O)cc1)NC(=O)[C@@H](NC(=O)[C@H](CCCNC(=N)N)NC(=O)[C@@H](N)CC(=O)O)C(C)C)C(=O)N[C@@H](Cc1c[nH]cn1)C(=O)N1CCC[C@H]1C(=O)O` [AT1-7, angiotensin (1-7)], the “MAS1 activation: increase of intracellular NO concentration” value is reported as “increase the intracellular concentration of NO in a dose dependent manner”.

The values above are taken from publication PMC4795166, “Design of a MCoTI-Based Cyclotide with Angiotensin (1-7)-Like Activity” (Molecules, 2016).
